From patent US20110281798A1, “Methods for Lowering Plasma Glucagon with Exendins and Exendin Agonist Analogs” (AMYLIN PHARMACEUTICALS, INC., priority 1999, published 2011)

What was measured:
diabetic db/db mice = assay: Plasma glucose lowering in diabetic db/db mice, dose response; format: in vivo, mouse
Sprague-Dawley rats = assay: Insulinotropic action during intravenous glucose challenge in rats; format: in vivo, rat; conditions: 30 pmol/kg/min i.v.

Substance | Glucose-lowering ED50 (diabetic db/db mice; diabetic db/db mice) [µg] | Increase of 60-min insulin AUC versus saline (Sprague-Dawley rats; n.s. versus saline) [%] | Plasma glucose after glucose injection (Sprague-Dawley rats; saline 21.7) [mM] | 60-min glucose AUC (Sprague-Dawley rats; saline 987±39) [mM·min] | glucose lowering activity compared with exendin 4 (diabetic db/db mice; model not stated at b253)
GLP-1 [7-36]NH2 | 20.6 | 20 | 23.7 | 1096 ± 68 | –
Leu^14, Phe^25 1-28 exendin-4 (HGEGTFTSDLSKQLEEEAVRLAIEFLKN) [AC3177, a shortened analog of exendin 4] | – | – | – | – | nearly equipotent activity to exendin 4
